Experimental data reported in patent publication US9738634B2, “Heterocyclic amide compound and herbicide” (SYNGENTA PARTICIPATIONS AG, priority 2013, dated 2017).

Key:
[1] = test system: bulrush; test: Test Example 2: weedkilling efficacy, growth period weed treatment in the submerged state; B: bulrush; assay type: in vivo; details: treatment dosage 320 g/ha
In short: (§1)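 Barnyard grass, bulrush and oval-leafed pondweed sown in alluvial soil under 4 cm flooding, greenhouse 25 to 30° C. At 1-2 leaf stage, water-diluted emulsion applied to the water surface at stated g/ha dosages; effects scored 3 weeks later.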

[2] = test system: oval-leafed pondweed; test: Test Example 1: weedkilling efficacy, preemergent weed treatment in the submerged state; C: oval-leafed pondweed; assay type: in vivo; details: treatment dosage 320 g/ha
In short: (§2)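 Pots of alluvial soil flooded 4 cm deep, sown with barnyard grass, bulrush and oval-leafed pondweed and transplanted with 2.5-leaf rice. Emulsified compound applied to the water surface on sowing day at stated g/ha; greenhouse 25–30 °C, effects assessed 3 weeks after treatment.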

[3] = test system: birds-eye speedwell; test: Test Example 4: weedkilling efficacy by foliar treatment; p: birds-eye speedwell; assay type: in vivo; details: treatment dosage 320 g/ha
In short: (§3)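 Seeds are spot-sown into sterilized diluvial soil and covered with about 1.5 cm of soil. After 14 days' greenhouse growth at 25 to 30° C, plants are sprayed on stems and leaves with diluted emulsion at the stated g/ha rate, then scored at 3 weeks.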

[4] = test system: beet; test: Test Example 4: foliar treatment, effect on crop; f: beet; assay type: in vivo; details: treatment dosage 320 g/ha
In short: as §3

[5] = test system: barnyard grass; test: Test Example 2: weedkilling efficacy, growth period weed treatment in the submerged state; A: barnyard grass; assay type: in vivo; details: treatment dosage 320 g/ha
In short: as §1

[6] = test system: chickweed; test: Test Example 4: weedkilling efficacy by foliar treatment; N: chickweed; assay type: in vivo; details: treatment dosage 320 g/ha
In short: as §3

[7] = test system: corn; test: Test Example 3: soil treatment, effect on crop; c: corn; assay type: in vivo; details: treatment dosage 320 g/ha
In short: (§4)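 Crop and weed responses were judged three weeks after a uniform surface spray of the water-diluted emulsion at the given g/ha rate. Seeds sat beneath about 1.5 cm of sterilized diluvial soil, and boxes stood in a greenhouse at 25 to 30° C.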

[8] = test system: green foxtail; test: Test Example 3: weedkilling efficacy through soil treatment; E: green foxtail; assay type: in vivo; details: treatment dosage 320 g/ha
In short: as §4

[9] = test system: corn; test: Test Example 4: foliar treatment, effect on crop; c: corn; assay type: in vivo; details: treatment dosage 320 g/ha
In short: as §3

[10] = test system: Indian mallow; test: Test Example 3: weedkilling efficacy through soil treatment; K: Indian mallow; assay type: in vivo; details: treatment dosage 320 g/ha
In short: as §4

[11] = test system: wild oat; test: Test Example 4: weedkilling efficacy by foliar treatment; G: wild oat; assay type: in vivo; details: treatment dosage 320 g/ha
In short: as §3

[12] = test system: barnyard grass; test: Test Example 3: weedkilling efficacy through soil treatment; F: barnyard grass; assay type: in vivo; details: treatment dosage 320 g/ha
In short: as §4

[13] = test system: birds-eye speedwell; test: Test Example 3: weedkilling efficacy through soil treatment; p: birds-eye speedwell; assay type: in vivo; details: treatment dosage 320 g/ha
In short: as §4

[14] = test system: rapeseed; test: Test Example 3: soil treatment, effect on crop; g: rapeseed; assay type: in vivo; details: treatment dosage 320 g/ha
In short: as §4

[15] = test system: soybean; test: Test Example 3: soil treatment, effect on crop; d: soybean; assay type: in vivo; details: treatment dosage 320 g/ha
In short: as §4

[16] = test system: wheat; test: Test Example 3: soil treatment, effect on crop; e: wheat; assay type: in vivo; details: treatment dosage 320 g/ha
In short: as §4

[17] = test system: common wind-grass; test: Test Example 4: weedkilling efficacy by foliar treatment; J: common wind-grass; assay type: in vivo; details: treatment dosage 320 g/ha
In short: as §3

[18] = test system: beet; test: Test Example 3: soil treatment, effect on crop; f: beet; assay type: in vivo; details: treatment dosage 320 g/ha
In short: as §4

[19] = test system: soybean; test: Test Example 4: foliar treatment, effect on crop; d: soybean; assay type: in vivo; details: treatment dosage 320 g/ha
In short: as §3

[20] = test system: fig-leafed goosefoot; test: Test Example 3: weedkilling efficacy through soil treatment; M: fig-leafed goosefoot; assay type: in vivo; details: treatment dosage 320 g/ha
In short: as §4

[21] = test system: crabgrass; test: Test Example 4: weedkilling efficacy by foliar treatment; D: crabgrass; assay type: in vivo; details: treatment dosage 320 g/ha
In short: as §3

[22] = test system: redroot pigweed; test: Test Example 3: weedkilling efficacy through soil treatment; L: redroot pigweed; assay type: in vivo; details: treatment dosage 320 g/ha
In short: as §4

[23] = test system: fig-leafed goosefoot; test: Test Example 4: weedkilling efficacy by foliar treatment; M: fig-leafed goosefoot; assay type: in vivo; details: treatment dosage 320 g/ha
In short: as §3

[24] = test system: black-grass; test: Test Example 3: weedkilling efficacy through soil treatment; H: black-grass; assay type: in vivo; details: treatment dosage 320 g/ha
In short: as §4

[25] = test system: bulrush; test: Test Example 1: weedkilling efficacy, preemergent weed treatment in the submerged state; B: bulrush; assay type: in vivo; details: treatment dosage 320 g/ha
In short: as §2

[26] = test system: rapeseed; test: Test Example 4: foliar treatment, effect on crop; g: rapeseed; assay type: in vivo; details: treatment dosage 320 g/ha
In short: as §3

[27] = test system: crabgrass; test: Test Example 3: weedkilling efficacy through soil treatment; D: crabgrass; assay type: in vivo; details: treatment dosage 320 g/ha
In short: as §4

[28] = test system: catchweed; test: Test Example 3: weedkilling efficacy through soil treatment; O: catchweed; assay type: in vivo; details: treatment dosage 320 g/ha
In short: as §4

[29] = test system: Indian mallow; test: Test Example 4: weedkilling efficacy by foliar treatment; K: Indian mallow; assay type: in vivo; details: treatment dosage 320 g/ha
In short: as §3

[30] = test system: Italian ryegrass; test: Test Example 4: weedkilling efficacy by foliar treatment; I: Italian ryegrass; assay type: in vivo; details: treatment dosage 320 g/ha
In short: as §3

[31] = test system: wild oat; test: Test Example 3: weedkilling efficacy through soil treatment; G: wild oat; assay type: in vivo; details: treatment dosage 320 g/ha
In short: as §4

[32] = test system: chickweed; test: Test Example 3: weedkilling efficacy through soil treatment; N: chickweed; assay type: in vivo; details: treatment dosage 320 g/ha
In short: as §4

[33] = test system: directly sown rice; test: Test Example 3: soil treatment, effect on crop; b: directly sown rice; assay type: in vivo; details: treatment dosage 320 g/ha
In short: as §4

[34] = test system: wheat; test: Test Example 4: foliar treatment, effect on crop; e: wheat; assay type: in vivo; details: treatment dosage 320 g/ha
In short: as §3

[35] = test system: black-grass; test: Test Example 4: weedkilling efficacy by foliar treatment; H: black-grass; assay type: in vivo; details: treatment dosage 320 g/ha
In short: as §3

[36] = test system: common wind-grass; test: Test Example 3: weedkilling efficacy through soil treatment; J: common wind-grass; assay type: in vivo; details: treatment dosage 320 g/ha
In short: as §4

[37] = test system: green foxtail; test: Test Example 4: weedkilling efficacy by foliar treatment; E: green foxtail; assay type: in vivo; details: treatment dosage 320 g/ha
In short: as §3

[38] = test system: catchweed; test: Test Example 4: weedkilling efficacy by foliar treatment; O: catchweed; assay type: in vivo; details: treatment dosage 320 g/ha
In short: as §3

[39] = test system: oval-leafed pondweed; test: Test Example 2: weedkilling efficacy, growth period weed treatment in the submerged state; C: oval-leafed pondweed; assay type: in vivo; details: treatment dosage 320 g/ha
In short: as §1

[40] = test system: Italian ryegrass; test: Test Example 3: weedkilling efficacy through soil treatment; I: Italian ryegrass; assay type: in vivo; details: treatment dosage 320 g/ha
In short: as §4

[41] = test system: redroot pigweed; test: Test Example 4: weedkilling efficacy by foliar treatment; L: redroot pigweed; assay type: in vivo; details: treatment dosage 320 g/ha
In short: as §3

[42] = test system: barnyard grass; test: Test Example 1: weedkilling efficacy, preemergent weed treatment in the submerged state; A: barnyard grass; assay type: in vivo; details: treatment dosage 320 g/ha
In short: as §2

[43] = test system: barnyard grass; test: Test Example 4: weedkilling efficacy by foliar treatment; F: barnyard grass; assay type: in vivo; details: treatment dosage 320 g/ha
In short: as §3

[44] = test system: directly sown rice; test: Test Example 4: foliar treatment, effect on crop; b: directly sown rice; assay type: in vivo; details: treatment dosage 320 g/ha
In short: as §3

[45] = test system: transplanted rice; test: Test Example 1: preemergent weed treatment in the submerged state, effect on crop; a: transplanted rice; assay type: in vivo; details: treatment dosage 320 g/ha
In short: as §2

CCCN(C(=O)C(C)(C)N1COCN(c2ccccc2)C1=O)c1cc(C(F)(F)F)ccn1 [A-5-05, 2-methyl-2-(4-oxo-5-phenyl-1,3,5-oxadiazinan-3-yl)-N-propyl-N-[4-(trifluoromethyl)-pyridin-2-yl]propionamide]
melting point: 163 to 164 °C

CCC1N=CSN1NC(=O)C(C)(C)N1COC(C)=C(c2ccsc2)C1=O (centres unmarked) [B-1-02, N-(3-ethyl-1,2,4-thiadiazol-2-yl)-2-methyl-2-[6-methyl-4-oxo-5-(thiophen-3-yl)-2H-1,3-oxazin-3(4H)-yl]propionamide]
melting point: 171 to 172 °C

CC1=C(c2ccccc2)C(=O)N(C(C)(C)C(=O)Nc2cc(C(F)F)ccn2)CO1 [B-2-54]
B (bulrush) weedkilling efficacy grade [1]: 5 (weed kill ratio 90% or more, (practically complete withering))
C (oval-leafed pondweed) weedkilling efficacy grade [2]: 5 (weed kill ratio 90% or more, (practically complete withering))
P (birds-eye speedwell) weedkilling efficacy grade [3]: 4 (weed kill ratio 70% or more, less than 90%)
f (beet) effect on crop grade [4]: 4 (weed kill ratio 70% or more, less than 90%)
A (barnyard grass) weedkilling efficacy grade [5]: 5 (weed kill ratio 90% or more, (practically complete withering))
N (chickweed) weedkilling efficacy grade [6]: 4 (weed kill ratio 70% or more, less than 90%)
c (corn) effect on crop grade [7]: 2 (weed kill ratio 20% or more, less than 40%)
E (green foxtail) weedkilling efficacy grade [8]: 5 (weed kill ratio 90% or more, (practically complete withering))
c (corn) effect on crop grade [9]: 3 (weed kill ratio 40% or more, less than 70%)
K (Indian mallow) weedkilling efficacy grade [10]: 3 (weed kill ratio 40% or more, less than 70%)
G (wild oat) weedkilling efficacy grade [11]: 5 (weed kill ratio 90% or more, (practically complete withering))
F (barnyard grass) weedkilling efficacy grade [12]: 5 (weed kill ratio 90% or more, (practically complete withering))
P (birds-eye speedwell) weedkilling efficacy grade [13]: 5 (weed kill ratio 90% or more, (practically complete withering))
g (rapeseed) effect on crop grade [14]: 4 (weed kill ratio 70% or more, less than 90%)
d (soybean) effect on crop grade [15]: 0 (weed kill ratio 5% or less (practically no effect))
e (wheat) effect on crop grade [16]: 0 (weed kill ratio 5% or less (practically no effect))
J (common wind-grass) weedkilling efficacy grade [17]: 5 (weed kill ratio 90% or more, (practically complete withering))
f (beet) effect on crop grade [18]: 4 (weed kill ratio 70% or more, less than 90%)
d (soybean) effect on crop grade [19]: 4 (weed kill ratio 70% or more, less than 90%)
M (fig-leafed goosefoot) weedkilling efficacy grade [20]: 3 (weed kill ratio 40% or more, less than 70%)
D (crabgrass) weedkilling efficacy grade [21]: 5 (weed kill ratio 90% or more, (practically complete withering))
L (redroot pigweed) weedkilling efficacy grade [22]: 4 (weed kill ratio 70% or more, less than 90%)
M (fig-leafed goosefoot) weedkilling efficacy grade [23]: 4 (weed kill ratio 70% or more, less than 90%)
H (black-grass) weedkilling efficacy grade [24]: 5 (weed kill ratio 90% or more, (practically complete withering))
B (bulrush) weedkilling efficacy grade [25]: 5 (weed kill ratio 90% or more, (practically complete withering))
g (rapeseed) effect on crop grade [26]: 4 (weed kill ratio 70% or more, less than 90%)
D (crabgrass) weedkilling efficacy grade [27]: 5 (weed kill ratio 90% or more, (practically complete withering))
O (catchweed) weedkilling efficacy grade [28]: 4 (weed kill ratio 70% or more, less than 90%)
K (Indian mallow) weedkilling efficacy grade [29]: 4 (weed kill ratio 70% or more, less than 90%)
I (Italian ryegrass) weedkilling efficacy grade [30]: 5 (weed kill ratio 90% or more, (practically complete withering))
G (wild oat) weedkilling efficacy grade [31]: 5 (weed kill ratio 90% or more, (practically complete withering))
N (chickweed) weedkilling efficacy grade [32]: 4 (weed kill ratio 70% or more, less than 90%)
b (directly sown rice) effect on crop grade [33]: 5 (weed kill ratio 90% or more, (practically complete withering))
e (wheat) effect on crop grade [34]: 0 (weed kill ratio 5% or less (practically no effect))
H (black-grass) weedkilling efficacy grade [35]: 5 (weed kill ratio 90% or more, (practically complete withering))
J (common wind-grass) weedkilling efficacy grade [36]: 5 (weed kill ratio 90% or more, (practically complete withering))
E (green foxtail) weedkilling efficacy grade [37]: 5 (weed kill ratio 90% or more, (practically complete withering))
O (catchweed) weedkilling efficacy grade [38]: 4 (weed kill ratio 70% or more, less than 90%)
C (oval-leafed pondweed) weedkilling efficacy grade [39]: 5 (weed kill ratio 90% or more, (practically complete withering))
I (Italian ryegrass) weedkilling efficacy grade [40]: 5 (weed kill ratio 90% or more, (practically complete withering))
L (redroot pigweed) weedkilling efficacy grade [41]: 4 (weed kill ratio 70% or more, less than 90%)
A (barnyard grass) weedkilling efficacy grade [42]: 5 (weed kill ratio 90% or more, (practically complete withering))
F (barnyard grass) weedkilling efficacy grade [43]: 5 (weed kill ratio 90% or more, (practically complete withering))
b (directly sown rice) effect on crop grade [44]: 5 (weed kill ratio 90% or more, (practically complete withering))
a (transplanted rice) effect on crop grade [45]: 5 (weed kill ratio 90% or more, (practically complete withering))
